Test results published in patent US6187802A, “Substituted 4-arylmethylene-2-imino-2,3-dihydrothiazoles and derivatives and their pharmaceutical use” (Knoll Aktiengesellschaft, priority 1997, dated 2001).
Structures can show the parent of a compound that is named as a salt. Where two headings read alike, the source gives them in different places.

Legend:
[1] = molecular target: T1, 5-hydroxytryptamine (5-HT) reuptake sites (Rattus norvegicus, UniProt P31652); assay: inhibition of [3H]5-HT uptake in vitro, frontal cortical synaptosomes; format: biochemical
T1 construct: Frontal cortical tissue from the brains of male Sprague-Dawley rats; from tissue; host or cells: rat brain frontal cortex (crude synaptosomes in A2, washed membranes in A5)
T1 sequence (P31652 whole entry): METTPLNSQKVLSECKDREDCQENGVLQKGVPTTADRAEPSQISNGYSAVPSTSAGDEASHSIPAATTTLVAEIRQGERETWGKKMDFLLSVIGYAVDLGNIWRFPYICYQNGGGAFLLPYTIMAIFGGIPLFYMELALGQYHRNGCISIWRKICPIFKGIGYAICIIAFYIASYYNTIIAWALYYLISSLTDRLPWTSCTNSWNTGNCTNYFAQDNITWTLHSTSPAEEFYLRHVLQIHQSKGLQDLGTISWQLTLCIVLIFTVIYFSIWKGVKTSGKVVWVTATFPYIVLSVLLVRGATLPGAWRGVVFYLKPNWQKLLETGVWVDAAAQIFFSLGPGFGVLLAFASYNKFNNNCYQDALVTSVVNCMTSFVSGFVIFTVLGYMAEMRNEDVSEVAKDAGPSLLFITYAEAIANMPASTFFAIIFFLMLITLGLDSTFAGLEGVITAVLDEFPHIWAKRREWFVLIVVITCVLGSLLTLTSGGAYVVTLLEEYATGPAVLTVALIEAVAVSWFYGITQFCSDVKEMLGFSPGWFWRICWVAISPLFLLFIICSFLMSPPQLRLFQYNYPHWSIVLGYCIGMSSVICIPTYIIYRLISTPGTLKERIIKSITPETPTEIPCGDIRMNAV
Protocol: (§1) Frontal cortical tissue from the brains of male Sprague-Dawley rats (Charles River; weight range 150-250 g) was homogenised in ice-cold 0.32M sucrose (1:10 w/v) using a motor driven teflon pestle (difference in diameter between mortar and pestle 0.5 mm). Nuclei and cell debris were removed by centrifugation at 1,500 g at 4° C. for 10 minutes. The pellet (P1) was discarded and the supernatant centrifuged at 28,000 g at 4° C. for 10 minutes. The crude synaptosomal pellet (P2) was resuspended in Krebs-Henseleit buffer (equivalent to 8.3 mg wet weight of tissue/ml).
Crude synaptosomes were incubated in a shaking water bath at 37° C. for 15 minutes. Aliquots (150 μl; equivalent to 1.25 mg wet weight of tissue/tube) were then added to tubes containing 275 μl of Krebs-Henseleit buffer and 50 μl of Krebs-Henseleit buffer (total uptake) or 50 μl of test compound (at 10 concentrations ranging from 10^-11 -10^-4 M) or 50 μl of zimeldine (10^-5 M; non-specific uptake). Uptake was initiated by the addition of 25 μl of freshly prepared [^3 H]5-HT (2 nM), followed by vortexing, and was continued for 5 minutes at 37° C. in the shaking water bath. Uptake was terminated by filtration under vacuum through Skatron 11734 filters using a Skatron cell harvester. Filters were then washed with 8 ml ice-cold saline. The scored filter paper discs were punched into vials, scintillation fluid added and radioactivity determined by liquid scintillation counting.
(§2) For each of the dopamine (DA) uptake, 5-hydroxytryptamine (5-HT) uptake and noradrenaline (NA) uptake inhibition tests, the percentage inhibition of specific uptake of the tritiated ligand was calculated for each concentration of test compound. Inhibition curves were then produced. The concentration which gave 50% inhibition of specific uptake (IC50) was obtained from the curve. The inhibition constant (Ki) was then calculated using the formula [formula]
(§3) in which [ligand] is the concentration of tritiated ligand used and Km is the affinity of the uptake site for the ligand. […] Values are means of three independent determinations unless otherwise indicated.

[2] = molecular target: T2, noradrenaline (NA) reuptake sites (Rattus norvegicus, UniProt Q63380); assay: inhibition of [3H]noradrenaline uptake in vitro, frontal cortical synaptosomes; format: biochemical; conditions: [3H]noradrenaline 10 nM, means of three independent determinations
T2 construct: Frontal cortical tissue from the brains of male Sprague-Dawley rats; from tissue; host or cells: rat brain frontal cortex (crude synaptosomes in A3, washed membranes in A6)
T2 sequence (Q63380 1-617): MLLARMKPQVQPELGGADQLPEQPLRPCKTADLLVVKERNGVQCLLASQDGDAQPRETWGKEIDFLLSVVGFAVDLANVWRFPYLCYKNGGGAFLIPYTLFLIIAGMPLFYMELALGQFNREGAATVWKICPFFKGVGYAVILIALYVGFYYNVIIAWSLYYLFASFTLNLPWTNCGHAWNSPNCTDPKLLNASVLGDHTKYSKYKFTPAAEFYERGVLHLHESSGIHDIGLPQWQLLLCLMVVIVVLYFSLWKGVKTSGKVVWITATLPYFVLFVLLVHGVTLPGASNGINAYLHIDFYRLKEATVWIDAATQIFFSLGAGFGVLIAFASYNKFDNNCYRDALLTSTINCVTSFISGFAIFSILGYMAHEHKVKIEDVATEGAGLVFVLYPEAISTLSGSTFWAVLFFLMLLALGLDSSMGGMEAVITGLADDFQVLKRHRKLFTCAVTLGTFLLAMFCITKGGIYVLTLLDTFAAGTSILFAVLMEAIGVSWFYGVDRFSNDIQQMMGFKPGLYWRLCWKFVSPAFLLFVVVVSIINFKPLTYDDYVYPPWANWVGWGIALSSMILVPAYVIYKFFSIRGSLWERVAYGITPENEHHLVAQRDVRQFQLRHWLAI
Protocol: as §1, with “Krebs-Physiological” for “Krebs-Henseleit”, “16.7” for “8.3”
Crude synaptosomes were incubated in a shaking water bath at 37° C. for 15 minutes. Aliquots (150 μl; equivalent to 2.5 mg wet weight of tissue/tube) were then added to tubes containing 275 μl of Krebs-Physiological buffer and 50 μl of Krebs-Physiological buffer (total uptake) or 50 μl of test compound (at 10 concentrations ranging from […]) or 50 μl of desipramine (10^-5 M; non-specific uptake). Uptake was initiated by the addition of 25 μl of freshly prepared [^3 H]noradrenaline (10 nM), followed by vortexing and was continued for 5 minutes at 37° C. in the shaking water bath. Uptake was terminated by filtration under vacuum through Whatman GF/B filters using a Brandel cell harvester. Filters were then washed with 8 ml ice-cold saline. The scored filter paper discs were placed into vials, scintillation fluid added and radioactivity determined by liquid scintillation counting.
as §2, §3

[3] = molecular target: T3, dopamine (DA) reuptake sites (Rattus norvegicus, UniProt P23977); assay: inhibition of [3H]dopamine uptake in vitro, striatal synaptosomes; format: biochemical; conditions: [3H]dopamine 2.5 nM, means of three independent determinations
T3 construct: Striatal tissue from the brains of male Charles River rats weighing 150-250 g; from tissue; host or cells: rat brain striatum (crude synaptosomes in A1, washed membranes in A4)
T3 sequence (P23977 whole entry): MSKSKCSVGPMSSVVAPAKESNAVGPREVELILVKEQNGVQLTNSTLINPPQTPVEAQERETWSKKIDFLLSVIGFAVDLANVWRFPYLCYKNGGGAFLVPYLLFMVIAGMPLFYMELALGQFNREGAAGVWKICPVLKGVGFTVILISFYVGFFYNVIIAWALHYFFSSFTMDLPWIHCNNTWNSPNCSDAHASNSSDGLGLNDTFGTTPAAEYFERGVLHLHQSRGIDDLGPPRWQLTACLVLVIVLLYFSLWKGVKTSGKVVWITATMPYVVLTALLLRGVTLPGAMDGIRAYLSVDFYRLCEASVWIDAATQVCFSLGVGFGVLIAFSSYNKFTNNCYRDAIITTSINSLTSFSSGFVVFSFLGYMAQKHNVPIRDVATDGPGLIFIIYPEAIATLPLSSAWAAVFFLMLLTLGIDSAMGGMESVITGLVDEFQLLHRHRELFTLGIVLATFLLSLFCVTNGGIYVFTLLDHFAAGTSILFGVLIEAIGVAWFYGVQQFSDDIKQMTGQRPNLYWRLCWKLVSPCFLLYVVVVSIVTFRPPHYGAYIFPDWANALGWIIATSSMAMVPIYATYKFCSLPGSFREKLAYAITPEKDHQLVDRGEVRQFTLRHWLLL
Protocol: as §1, with “Striatal” for “Frontal cortical”, “Charles River” for “Sprague-Dawley”, “weighing” for “(Charles River; weight range”, “g” for “g)”, “4.2” for “8.3”
Crude synaptosomes were incubated in a shaking water bath at 37° C. for 15 minutes. Aliquots (150 μl; equivalent to 0.625 mg wet weight of tissue/tube) were then added to tubes containing 275 μl of Krebs-Henseleit buffer and 50 μl of Krebs-Henseleit buffer (total uptake) or 50 μl of test compound (10 concentrations ranging from 10^-11 -10^-4 M or 50 μl of GBR 12909 (10^-5 M; non-specific uptake). Uptake was initiated by the addition of 25 μl of freshly prepared [^3 H]dopamine (2.5 nM), followed by vortexing and was continued for 5 minutes at 37° C. in the shaking water bath.
Uptake was terminated by filtration under vacuum through Skatron 11735 filters using a Skatron cell harvester. Filters were then washed with 8 ml ice-cold saline. The scored filter paper discs were punched into vials, scintillation fluid added and radioactivity determined by liquid scintillation counting.
as §2, §3

[4] = molecular target: T1, 5-hydroxytryptamine (5-HT) reuptake sites; assay: displacement of [3H]paroxetine from 5-HT reuptake sites, frontal cortical membranes; format: binding; conditions: 10^-6 M test compound, [3H]paroxetine 30 pM, one test only, read-out: 5-HT uptake (% displacement of specific binding of tritiated ligand)
Procedure, shortened: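 Rat frontal cortex membranes (male, 150-250 g; 2 mg wet tissue/tube) in 50 mM Tris-HCl pH 7.5 with 120 mM NaCl and 5 mM KCl, incubated 2 h at 22 °C with 30 pM [3H]paroxetine and compound at 10^-6 M. Citalopram 1 μM defined non-specific binding; values are % displacement of specific binding from a single test, filtration and scintillation counting.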

[5] = molecular target: T2, noradrenaline (NA) reuptake sites; assay: displacement of [3H]nisoxetine from noradrenaline reuptake sites, frontal cortical membranes; conditions: 10^-6 M test compound, [3H]nisoxetine 0.6 nM, one test only, read-out: NA uptake (% displacement of specific binding of tritiated ligand)
Procedure, shortened: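 Washed male rat frontal cortex membranes in 50 mM Tris pH 7.4, 300 mM NaCl, 5 mM KCl, incubated 4 h at 4 °C with 0.6 nM [3H]nisoxetine and test compound at 10^-6 M; mazindol (1 μM) defined non-specific binding. Filtration, scintillation counting; % displacement of specific binding, single test.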

[6] = molecular target: T3, dopamine (DA) reuptake sites; assay: displacement of [3H]GBR 12935 from dopamine reuptake sites, striatal membranes; format: binding; conditions: 10^-6 M test compound, [3H]GBR 12935 1 nM, one test only, read-out: DA uptake (% displacement of specific binding of tritiated ligand)
Procedure, shortened: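 Rat striatal membranes (male rats, 150-250 g) incubated 90 min at 4 °C with 1 nM [3H]GBR 12935 in 50 mM Tris-HCl pH 7.4, 200 mM NaCl, 5 mM KCl; non-specific binding with 1 μM mazindol. Filtration, scintillation counting; value is % displacement of specific binding at 10^-6 M, single test; IA means <50%.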

SMILES	Ki ([1]; rat frontal cortical synaptosomes, [3H]5-HT 2 nM, means of three independent determinations, read-out: 5-HT uptake (Ki)) [nM]	Ki [2] [nM]	Ki [3] [nM]	Ki [1] [nM]	inhibition at 1 µM [4] [%]	inhibition at 1 µM [5] [%]	inhibition at 1 µM [6] [%]
Clc1ccc(C2(C3=CSC4=NCCN34)CCC2)cc1Cl [Example 1, 3-[1-(3,4-dichlorophenyl)cyclobuty]-5,6-dihydroimidazo[2,1-b]thiazole hydrobromide]	120	34	9.2	–	–	–	–
Clc1ccc(C2(C3=CSC4=NCCCN34)CCC2)cc1 [Example 2, 3-[1-(4-chlorophenyl)cyclobutyl]-6,7-dihydro-5H-thiazolo[3,2-a]pyrimidine hydrobromide]	–	261	104	782	–	–	–
Clc1ccc(C2(C3=CSC4=NCCN34)CCC2)cc1 [Example 3, 3-[1-(4-chlorophenyl)cyclobutyl]-5,6-dihydroimidazo-[2,1-b]thiazole hydrobromide]	–	22	79	795	–	–	–
Clc1ccc(C2(C3=CSC4=NCCCN34)CCC2)cc1Cl [Example 4, 3-[1-(3,4-dichlorophenyl)cyclobutyl]-6,7-dihydro-5H-thiazolo[3,2-a]pyrimidine hydrobromide]	–	15	9.5	137	–	–	–
C1=C(C2(c3ccc4ccccc4c3)CCC2)N2CCN=C2S1 [Example 5, 3-[1-(2-naphthyl)cyclobutyl]-5,6-dihydroimidazo[2,1-b]thiazole hydrobromide]	–	4.4	5.9	25	–	–	–
C1=C(C2(c3ccccc3)CCCCC2)N2CCN=C2S1 [Example 72, 3-(1-Phenylcyclohexyl)-5,6-dihydroimidazo[2,1-b]thiazole hydrobromide]	–	–	–	–	< 50	< 50	70
CC(C)(C1=CSC2=NCCN12)c1ccc(Cl)cc1 [Example 73, 3-[1-(4-Chlorophenyl)-1-methylethyl]-5,6-dihydroimidazo[2,1-b]thiazole hydrobromide]	–	–	–	–	< 50	< 50	59
Fc1cccc(C2(C3=CSC4=NCCN34)CCC2)c1 [Example 75, 3-[1-(3-Fluorophenyl)cyclobutyl]-5,6-dihydroimidazo[2,1-b]thiazole hydrobromide]	–	–	–	–	53	< 50	< 50
CSc1ccc(C2(C3=CSC4=NCCN34)CCC2)cc1 [Example 76, 3-[1-(4-Methylthiophenyl)cyclobutyl]-5,6-dihydroimidazo[2,1-b]thiazole hydrobromide]	–	–	–	–	81	< 50	< 50
